# Assay results taken from PubChem BioAssay (NCI).
#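 1) Cells in 96-well plates. 2) Compound, 48 h, 5 concentrations. 3) Linear interpolation between surrounding doses. 4) Unreached endpoint = highest concentration. Definition used: TGI = concentration required for complete inhibition of growth.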
# What was measured:
# Experiment in all cases: inhibition of tumour cell growth, NCI panel, 48 h
# 786-0 renal = test system: 786-0 renal
# A498 renal = test system: A498 renal
# A549 NSCLC = test system: A549 NSCLC
# ACHN renal = test system: ACHN renal
# BT-549 breast = test system: BT-549 breast
# CAKI-1 renal = test system: CAKI-1 renal
# CCRF-CEM leukemia = test system: CCRF-CEM leukemia
# COLO 205 colon = test system: COLO 205 colon
# DU-145 prostate = test system: DU-145 prostate
# EKVX NSCLC = test system: EKVX NSCLC
# HCC-2998 colon = test system: HCC-2998 colon
# HCT-116 colon = test system: HCT-116 colon
# HCT-15 colon = test system: HCT-15 colon
# HL-60(TB) leukemia = test system: HL-60(TB) leukemia
# HOP-62 NSCLC = test system: HOP-62 NSCLC
# HOP-92 NSCLC = test system: HOP-92 NSCLC
# HS 578T breast = test system: HS 578T breast
# HT29 colon = test system: HT29 colon
# IGROV1 ovarian = test system: IGROV1 ovarian
# K-562 leukemia = test system: K-562 leukemia
# KM12 colon = test system: KM12 colon
# M14 melanoma = test system: M14 melanoma
# MALME-3M melanoma = test system: MALME-3M melanoma
# MCF7 breast = test system: MCF7 breast
# MDA-MB-231 breast = test system: MDA-MB-231 breast
# MDA-MB-435 = test system: MDA-MB-435
# MDA-N = test system: MDA-N
# MOLT-4 leukemia = test system: MOLT-4 leukemia
# NCI-H226 lung = test system: NCI-H226 lung
# NCI-H23 lung = test system: NCI-H23 lung
# NCI-H460 lung = test system: NCI-H460 lung
# NCI-H522 lung = test system: NCI-H522 lung
# NCI/ADR-RES ovarian = test system: NCI/ADR-RES ovarian
# OVCAR-3 ovarian = test system: OVCAR-3 ovarian
# OVCAR-4 ovarian = test system: OVCAR-4 ovarian
# OVCAR-5 ovarian = test system: OVCAR-5 ovarian
# OVCAR-8 ovarian = test system: OVCAR-8 ovarian
# PC-3 prostate = test system: PC-3 prostate
# RPMI-8226 leukemia = test system: RPMI-8226 leukemia
# RXF 393 renal = test system: RXF 393 renal
# SF-268 CNS = test system: SF-268 CNS
# SF-295 CNS = test system: SF-295 CNS
# SF-539 CNS = test system: SF-539 CNS
# SK-MEL-2 melanoma = test system: SK-MEL-2 melanoma
# SK-MEL-5 melanoma = test system: SK-MEL-5 melanoma
# SK-OV-3 ovarian = test system: SK-OV-3 ovarian
# SN12C renal = test system: SN12C renal
# SNB-19 CNS = test system: SNB-19 CNS
# SNB-75 CNS = test system: SNB-75 CNS
# SR leukemia = test system: SR leukemia
# SW-620 colon = test system: SW-620 colon
# TK-10 renal = test system: TK-10 renal
# U251 CNS = test system: U251 CNS
# UACC-257 melanoma = test system: UACC-257 melanoma
# UACC-62 melanoma = test system: UACC-62 melanoma
# UO-31 renal = test system: UO-31 renal
# LOX IMVI melanoma = test system: LOX IMVI melanoma
# SK-MEL-28 melanoma = test system: SK-MEL-28 melanoma
# T-47D breast = test system: T-47D breast
smiles,measurement,setting,value
COc1ccc(CCn2cnc3ccccc32)cc1,TGI,786-0 renal,> 100 µM
same,TGI,A498 renal,> 100 µM
same,TGI,A549 NSCLC,> 100 µM
same,TGI,ACHN renal,> 100 µM
same,TGI,BT-549 breast,> 100 µM
same,TGI,CAKI-1 renal,> 100 µM
same,TGI,CCRF-CEM leukemia,> 100 µM
same,TGI,COLO 205 colon,> 100 µM
same,TGI,DU-145 prostate,> 100 µM
same,TGI,EKVX NSCLC,> 100 µM
same,TGI,HCC-2998 colon,> 100 µM
same,TGI,HCT-116 colon,> 100 µM
same,TGI,HCT-15 colon,> 100 µM
same,TGI,HL-60(TB) leukemia,> 100 µM
same,TGI,HOP-62 NSCLC,> 100 µM
same,TGI,HOP-92 NSCLC,> 100 µM
same,TGI,HS 578T breast,> 100 µM
same,TGI,HT29 colon,> 100 µM
same,TGI,IGROV1 ovarian,> 100 µM
same,TGI,K-562 leukemia,> 100 µM
same,TGI,KM12 colon,> 100 µM
same,TGI,M14 melanoma,> 100 µM
same,TGI,MALME-3M melanoma,> 100 µM
same,TGI,MCF7 breast,> 100 µM
same,TGI,MDA-MB-231 breast,> 100 µM
same,TGI,MDA-MB-435,> 100 µM
same,TGI,MDA-N,> 100 µM
same,TGI,MOLT-4 leukemia,> 100 µM
same,TGI,NCI-H226 lung,> 100 µM
same,TGI,NCI-H23 lung,> 100 µM
same,TGI,NCI-H460 lung,> 100 µM
same,TGI,NCI-H522 lung,> 100 µM
same,TGI,NCI/ADR-RES ovarian,> 100 µM
same,TGI,OVCAR-3 ovarian,> 100 µM
same,TGI,OVCAR-4 ovarian,> 100 µM
same,TGI,OVCAR-5 ovarian,> 100 µM
same,TGI,OVCAR-8 ovarian,> 100 µM
same,TGI,PC-3 prostate,> 100 µM
same,TGI,RPMI-8226 leukemia,> 100 µM
same,TGI,RXF 393 renal,> 100 µM
same,TGI,SF-268 CNS,> 100 µM
same,TGI,SF-295 CNS,> 100 µM
same,TGI,SF-539 CNS,> 100 µM
same,TGI,SK-MEL-2 melanoma,> 100 µM
same,TGI,SK-MEL-5 melanoma,> 100 µM
same,TGI,SK-OV-3 ovarian,> 100 µM
same,TGI,SN12C renal,> 100 µM
same,TGI,SNB-19 CNS,> 100 µM
same,TGI,SNB-75 CNS,> 100 µM
same,TGI,SR leukemia,> 100 µM
same,TGI,SW-620 colon,> 100 µM
same,TGI,TK-10 renal,> 100 µM
same,TGI,U251 CNS,> 100 µM
same,TGI,UACC-257 melanoma,> 100 µM
same,TGI,UACC-62 melanoma,> 100 µM
same,TGI,UO-31 renal,> 100 µM
O=C(Nc1ccccc1F)c1c(O)nc2sccn2c1=O,TGI,A498 renal,> 10 µM
same,TGI,A549 NSCLC,> 10 µM
same,TGI,ACHN renal,> 10 µM
same,TGI,CAKI-1 renal,> 10 µM
same,TGI,CCRF-CEM leukemia,> 10 µM
same,TGI,COLO 205 colon,> 10 µM
same,TGI,DU-145 prostate,> 10 µM
same,TGI,EKVX NSCLC,> 10 µM
same,TGI,HCC-2998 colon,> 10 µM
same,TGI,HCT-116 colon,> 10 µM
same,TGI,HCT-15 colon,> 10 µM
same,TGI,HL-60(TB) leukemia,> 10 µM
same,TGI,HOP-62 NSCLC,> 10 µM
same,TGI,HS 578T breast,> 10 µM
same,TGI,HT29 colon,> 10 µM
same,TGI,IGROV1 ovarian,> 10 µM
same,TGI,KM12 colon,> 10 µM
same,TGI,LOX IMVI melanoma,> 10 µM
same,TGI,M14 melanoma,> 10 µM
same,TGI,MALME-3M melanoma,> 10 µM
same,TGI,MCF7 breast,> 10 µM
same,TGI,MDA-MB-231 breast,> 10 µM
same,TGI,MDA-MB-435,> 10 µM
same,TGI,MDA-N,> 10 µM
same,TGI,MOLT-4 leukemia,> 10 µM
same,TGI,NCI-H226 lung,> 10 µM
same,TGI,NCI-H23 lung,> 10 µM
same,TGI,NCI-H460 lung,> 10 µM
same,TGI,NCI-H522 lung,> 10 µM
same,TGI,NCI/ADR-RES ovarian,> 10 µM
same,TGI,OVCAR-3 ovarian,> 10 µM
same,TGI,OVCAR-4 ovarian,> 10 µM
same,TGI,OVCAR-5 ovarian,> 10 µM
same,TGI,OVCAR-8 ovarian,> 10 µM
same,TGI,PC-3 prostate,> 10 µM
same,TGI,RPMI-8226 leukemia,> 10 µM
same,TGI,RXF 393 renal,> 10 µM
same,TGI,SF-268 CNS,> 10 µM
same,TGI,SF-295 CNS,> 10 µM
same,TGI,SF-539 CNS,> 10 µM
same,TGI,SK-MEL-2 melanoma,> 10 µM
same,TGI,SK-MEL-28 melanoma,> 10 µM
same,TGI,SK-MEL-5 melanoma,> 10 µM
same,TGI,SK-OV-3 ovarian,> 10 µM
same,TGI,SN12C renal,> 10 µM
same,TGI,SNB-19 CNS,> 10 µM
same,TGI,SNB-75 CNS,> 10 µM
same,TGI,SR leukemia,> 10 µM
same,TGI,SW-620 colon,> 10 µM
same,TGI,T-47D breast,> 10 µM
same,TGI,TK-10 renal,> 10 µM
same,TGI,U251 CNS,> 10 µM
same,TGI,UACC-62 melanoma,> 10 µM
same,TGI,UO-31 renal,> 10 µM
